What was measured:
[1] = tested on: Fungi; experiment: Antimicrobial Effectiveness Testing (USP 24) of preserved cosmetic formulations, count of fungi; assay type: cell-based, Aspergillus niger ATCC 16404; details: for Fungi, Initial: 0 hours
Excerpt: (§1) Procedure to Evaluate the Efficacv of the Preservative System
(§2) This assay consists on the contamination of the formulations to be protected with a mixed inoculum of 10^8 cfu/ml concentration, in each of the micro-organisms, and see the variation of the viable cells in time. This mixed inoculum is composed of the following micro-organisms:
(§3) The cosmetic composition which is the subject of the investigation is divided into containers with 50 g of product for each flask. Each container is inoculated with 0.5 ml of the inoculum (10^8 cfu/ml). The target concentration is 10^6 cfu/mL, approximately. All the containers are kept at a temperature between 20-25° C. and are protected against light.
(§4) The level of the microbial contamination is determined at 0 hours and after 7 days, 14 days and 28 days. The number of colonies is determined by dilution in buffer peptone with the appropriate neutraliser agent of the preservative. The culture media used for counting the micro-organisms were: Soya triptone agar (35-37° C., 48 hours) for the determination of bacteria; and Sabouraud agar with chloramphenicol for fungi and yeast (25° C., 3-5 days).
(§5) According to Antimicrobial Effectiveness Testing USP 24th Edition, 1999 (pp. 1809-1811), an antimicrobial preservative is considered to be effective in topically used products made with aqueous bases or vehicles, non-sterile nasal products and emulsions, including those applied to mucous membranes, if: • not less than 2,0 logarithm reduction from the initial calculated bacteria's count at 14 days is reached and no increase from the 14 days' count is detected after 28 days; and • no increase from the initial calculated count of yeast and moulds is observed.

[2] = tested on: Aerobes; experiment: Antimicrobial Effectiveness Testing (USP 24) of preserved cosmetic formulations, count of aerobes; assay type: cell-based; details: for Aerobes, Initial: 0 hours
Excerpt: as §1, §2, §3, §4, §5

[3] = tested on: Yeast; experiment: Antimicrobial Effectiveness Testing (USP 24) of preserved cosmetic formulations, count of yeast; assay type: cell-based, Candida albicans ATCC 10231; details: for Yeast, Initial: 0 hours
Excerpt: as §1, §2, §3, §4, §5

[4] = Example 1, oil in water emulsion with non-ionic surfactant
[5] = Example 2, oil in water emulsion with ionic emulsifier
[6] = Example 3, water in oil emulsion with non-ionic emulsifier

| SMILES | Fungi, Initial [1, 4] | Fungi, 7 days [1, 4] | Fungi, 14 days [1, 4] | Fungi, Initial [1, 5] | Fungi, 7 days [1, 5] | Fungi, 14 days [1, 5] | Fungi, Initial [1, 6] | Fungi, 7 days [1, 6] | Fungi, 14 days [1, 6] | Aerobes, Initial [2, 4] | Aerobes, 7 days [2, 4] | Aerobes, 14 days [2, 4] | Aerobes, Initial [2, 5] | Aerobes, 7 days [2, 5] | Aerobes, 14 days [2, 5] | Aerobes, Initial [2, 6] | Aerobes, 7 days [2, 6] | Aerobes, 14 days [2, 6] | Yeast, Initial [3, 4] | Yeast, 7 days [3, 4] | further results |
| --- | --- | --- | --- | --- | --- | --- | --- | --- | --- | --- | --- | --- | --- | --- | --- | --- | --- | --- | --- | --- | --- |
| O=[N+]([O-])C(Br)(CO)CO [compound 2] | 1.5 · 10^5 | 1.2 · 10^3 | <9.9 · 10^1 | 1.5 · 10^5 | 8.5 · 10^3 | 1.1 · 10^2 | 3.5 · 10^4 | 8.5 · 10^3 | <9.9 · 10^1 | 1.2 · 10^6 | 2.1 · 10^3 | 7.9 · 10^2 | 4.5 · 10^6 | 2.1 · 10^4 | 3.8 · 10^3 | 3.3 · 10^6 | 5.7 · 10^3 | 2.8 · 10^3 | 3.4 · 10^4 | 1.7 · 10^2 | Yeast, 14 days [3, 4]: <9.9 · 10^1; Yeast, Initial [3, 5]: 2.9 · 10^4; Yeast, 7 days [3, 5]: 8.9 · 10^2; Yeast, 14 days [3, 5]: 4.0 · 10^2; Yeast, Initial [3, 6]: 5.9 · 10^4; Yeast, 7 days [3, 6]: 8.9 · 10^2; Yeast, 14 days [3, 6]: 4.0 · 10^2 |
| OCCOc1ccccc1 [compound 5] | 1.7 · 10^5 | 1.3 · 10^3 | <9.9 · 10^1 | 1.2 · 10^5 | 5.5 · 10^3 | 3.4 · 10^2 | 4.2 · 10^4 | 5.5 · 10^3 | <9.9 · 10^1 | 2.3 · 10^6 | 1.8 · 10^3 | 6.2 · 10^2 | 2.7 · 10^6 | 1.8 · 10^4 | 1.8 · 10^3 | 4.8 · 10^6 | 3.9 · 10^3 | 1.9 · 10^3 | 3.4 · 10^4 | 1.6 · 10^2 | Yeast, 14 days [3, 4]: <9.9 · 10^1; Yeast, Initial [3, 5]: 2.3 · 10^4; Yeast, 7 days [3, 5]: 5.3 · 10^2; Yeast, 14 days [3, 5]: <9.9 · 10^1; Yeast, Initial [3, 6]: 5.3 · 10^4; Yeast, 7 days [3, 6]: 5.3 · 10^2; Yeast, 14 days [3, 6]: <9.9 · 10^1 |
| CCCCCCCCCCCC(=O)NC(CCCNC(=N)N)C(=O)OCC.Cl (stereo not drawn) [compound 1] | 1.7 · 10^5 | 8.9 · 10^2 | <9.9 · 10^1 | 1.4 · 10^5 | 7.2 · 10^3 | 2.8 · 10^2 | 1.0 · 10^5 | <9.9 · 10^1 | <9.9 · 10^1 | 1.1 · 10^6 | 3.1 · 10^3 | 3.3 · 10^2 | 2.7 · 10^6 | 1.6 · 10^4 | 6.5 · 10^2 | 6.2 · 10^6 | 1.8 · 10^3 | <9.9 · 10^1 | 5.6 · 10^4 | 9.5 · 10^2 | Yeast, 14 days [3, 4]: 4.0 · 10^2; Yeast, Initial [3, 5]: 3.6 · 10^4; Yeast, 7 days [3, 5]: 1.0 · 10^2; Yeast, 14 days [3, 5]: 1.0 · 10^2; Yeast, Initial [3, 6]: 7.0 · 10^4; Yeast, 7 days [3, 6]: <9.9 · 10^1; Yeast, 14 days [3, 6]: <9.9 · 10^1 |
| CC1(C)C(=O)N(CO)C(=O)N1CO [compound 4] | 1.6 · 10^5 | 3.2 · 10^3 | <9.9 · 10^1 | 1.4 · 10^5 | 6.2 · 10^3 | 2.7 · 10^2 | 6.4 · 10^4 | 6.2 · 10^3 | <9.9 · 10^1 | 1.5 · 10^6 | 4.7 · 10^3 | 8.5 · 10^2 | 5.2 · 10^6 | 4.7 · 10^3 | 8.7 · 10^2 | 5.6 · 10^6 | 4.7 · 10^3 | 4.3 · 10^2 | 5.6 · 10^4 | 3.1 · 10^2 | Yeast, 14 days [3, 4]: <9.9 · 10^1; Yeast, Initial [3, 5]: 1.8 · 10^4; Yeast, 7 days [3, 5]: 2.8 · 10^2; Yeast, 14 days [3, 5]: <9.9 · 10^1; Yeast, Initial [3, 6]: 4.8 · 10^4; Yeast, 7 days [3, 6]: 2.8 · 10^2; Yeast, 14 days [3, 6]: <9.9 · 10^1 |
| ClC=CC[N+]12CN3CN(CN(C3)C1)C2.[Cl-] [compound 8] | 1.8 · 10^5 | 1.3 · 10^3 | <9.9 · 10^1 | 1.8 · 10^5 | 5.3 · 10^3 | <9.9 · 10^1 | 3.8 · 10^4 | 1.3 · 10^3 | <9.9 · 10^1 | 4.8 · 10^6 | 7.2 · 10^3 | 5.3 · 10^2 | 4.6 · 10^6 | 7.2 · 10^3 | 9.8 · 10^2 | 4.2 · 10^6 | 2.7 · 10^3 | 9.4 · 10^2 | 3.4 · 10^4 | 1.6 · 10^2 | Yeast, 14 days [3, 4]: <9.9 · 10^1; Yeast, Initial [3, 5]: 1.9 · 10^4; Yeast, 7 days [3, 5]: 5.9 · 10^2; Yeast, 14 days [3, 5]: <9.9 · 10^1; Yeast, Initial [3, 6]: 5.9 · 10^4; Yeast, 7 days [3, 6]: 5.9 · 10^2; Yeast, 14 days [3, 6]: <9.9 · 10^1 |

From patent publication US7758851B2, “Preservative systems and their use in cosmetic preparations” (Laboratorios Miret, S.A., priority 2001, dated 2010)
